According to patent US10980813B2, “Antifungal composition” (SEED RESEARCH INSTITUTE CO., LTD., priority 2017, dated 2021):
In brackets after ≈: the same amount, converted by molar mass.

Key:
Assay in all cases: Antifungal activity, MIC by disc (diffusion) method
[1] = system: C. parapsilosis; assay type: cell-based, Candida parapsilosis; conditions: Lodderomyces parapsilosis, YMG agar, 24 hr at 28° C., read-out: MIC (minimum inhibitory concentration) C. parapsilosis
Description: (§1) Measurement Method of Antifungal Activity in Various Compounds
(§2) The minimum inhibitory concentration (MIC) was measured by a disc method (diffusion method). The disc method is one kind of the diffusion method, and is a method in which filter paper (disc) impregnated with an antifungal substance at a given concentration is placed on an agar medium (test plate) coated with a test bacterium and cultivated. The disc absorbs water in the medium, diffuses the antifungal substance and forms a given concentration gradient. As a result, the test bacterium forms a growth inhibition zone (circle) in the periphery of the disc, and the level of sensitivity to the antifungal substance is determined from the diameter of the inhibition circle.
(§3) Using the aforementioned method, MIC of various compounds was measured.
(§4) i: In a 100 mL flask, 20 mL of YMG or Mueller Hinton medium is produced.
(§5) ii: A loopful of the test bacterium is dissolved in the medium.
(§6) iii: The medium is cultured at 200 rpm for 24 hr in a rotary shaker set to 28° C.
(§7) i: In a 300 mL flask, 100 mL of YMG or Mueller Hinton agar medium (low melting point agar) is produced.
(§8) ii: After cooling to 37° C.-40° C., preculture medium (1 mL) is added and the mixture is agitated.
(§9) iii: The mixture is dispensed to a square petri dish (size: 100*150*17 mm) by 20 mL each.
(§10) iv: The dish is stood at room temperature until the agar is solidified.
(§11) i: The compound is diluted in ½ dilution series in 10 stages (timely changed according to compound), 50 μL of solution/pulp at each dilution stage is produced, the organic solvent is dried at room temperature and placed on a test plate.
(§12) ii: After culturing T. rubrum for 48 hr and other test bacteria for 24 hr at 28° C. in an incubator, the size of the inhibition circle was measured.
(§13) The medium composition for culture which was used for the aforementioned preculture is shown below.
(§14) [Medium Compositions for Preculture and Test Plate]
(§15) <<YMG Medium>>: For Fungus
(§16) Agar, powder 0.8% * added only when producing test plate

[2] = system: Saccharomyces; assay type: cell-based; conditions: YMG agar, 24 hr at 28° C., read-out: MIC (minimum inhibitory concentration) Saccharomyces
Description: as §1, §2, §3, §4, §5, §6, §7, §8, §9, §10, §11, §12, §13, §14, §15, §16

[3] = system: A. fumigatus; assay type: cell-based; conditions: Aspergillus fumigatus, YMG agar, 24 hr at 28° C., read-out: MIC (minimum inhibitory concentration) A. fumigatus
Description: as §1, §2, §3, §4, §5, §6, §7, §8, §9, §10, §11, §12, §13, §14, §15, §16

[4] = system: T. rubrum; assay type: cell-based; conditions: Trichophyton rubrum, YMG agar, 48 hr at 28° C., read-out: MIC (minimum inhibitory concentration) T. rubrum
Description: as §1, §2, §3, §4, §5, §6, §7, §8, §9, §10, §11, §12, §13, §14, §15, §16

[5] = system: T. mentagrophytes; assay type: cell-based; conditions: Trichophyton mentagrophytes, YMG agar, 24 hr at 28° C., read-out: MIC (minimum inhibitory concentration) T. mentagrophytes
Description: as §1, §2, §3, §4, §5, §6, §7, §8, §9, §10, §11, §12, §13, §14, §15, §16

MIC [1] [µg/mL] | MIC [2] [µg/mL] | MIC [3] [µg/mL] | MIC [4] [µg/mL] | MIC [5] [µg/mL] | Structure (SMILES)
4 (≈ 18.4 µM) | 4 (≈ 18.4 µM) | 4 (≈ 18.4 µM) | 1 (≈ 4.6 µM) | 1 (≈ 4.6 µM) | O=S1(=O)Oc2ccc(F)cc2C2ON21 (stereo not drawn) [II-1a]
4 (≈ 17.1 µM) | 4 (≈ 17.1 µM) | 4 (≈ 17.1 µM) | 1 (≈ 4.28 µM) | 1 (≈ 4.28 µM) | O=S1(=O)Oc2ccc(Cl)cc2C2ON21 (stereo not drawn) [II-1b]
4 (≈ 14.4 µM) | 4 (≈ 14.4 µM) | 4 (≈ 14.4 µM) | 1 (≈ 3.6 µM) | 1 (≈ 3.6 µM) | O=S1(=O)Oc2ccc(Br)cc2C2ON21 (stereo not drawn) [II-1c]
8 (≈ 34.9 µM) | 8 (≈ 34.9 µM) | 8 (≈ 34.9 µM) | 2 (≈ 8.73 µM) | 2 (≈ 8.73 µM) | COc1ccc2c(c1)C1ON1S(=O)(=O)O2 (stereo not drawn) [II-1d]
4 (≈ 16.4 µM) | 4 (≈ 16.4 µM) | 4 (≈ 16.4 µM) | 1 (≈ 4.1 µM) | 1 (≈ 4.1 µM) | O=[N+]([O-])c1ccc2c(c1)C1ON1S(=O)(=O)O2 (stereo not drawn) [II-1e]
4 (≈ 15.6 µM) | 4 (≈ 15.6 µM) | 4 (≈ 15.6 µM) | 1 (≈ 3.89 µM) | 1 (≈ 3.89 µM) | COC(=O)c1ccc2c(c1)C1ON1S(=O)(=O)O2 (stereo not drawn) [II-1f]
4 (≈ 17.8 µM) | 4 (≈ 17.8 µM) | 4 (≈ 17.8 µM) | 1 (≈ 4.46 µM) | 1 (≈ 4.46 µM) | N#Cc1ccc2c(c1)C1ON1S(=O)(=O)O2 (stereo not drawn) [II-1g]
4 (≈ 14.9 µM) | 4 (≈ 14.9 µM) | 4 (≈ 14.9 µM) | 1 (≈ 3.73 µM) | 1 (≈ 3.73 µM) | O=S1(=O)Oc2c(Cl)cc(Cl)cc2C2ON21 (stereo not drawn) [II-1h]
4 (≈ 14.4 µM) | 4 (≈ 14.4 µM) | 4 (≈ 14.4 µM) | 1 (≈ 3.59 µM) | 1 (≈ 3.59 µM) | O=[N+]([O-])c1cc(Cl)cc2c1OS(=O)(=O)N1OC21 (stereo not drawn) [II-1i]
8 (≈ 37.5 µM) | 8 (≈ 37.5 µM) | 8 (≈ 37.5 µM) | 2 (≈ 9.38 µM) | 2 (≈ 9.38 µM) | CC12ON1S(=O)(=O)Oc1ccccc12 (stereo not drawn) [II-1j]
8 (≈ 37.7 µM) | 8 (≈ 37.7 µM) | 8 (≈ 37.7 µM) | 2 (≈ 9.42 µM) | 2 (≈ 9.42 µM) | CC12ON1S(=O)(=O)Nc1ccccc12 (stereo not drawn) [II-1k]
8 (≈ 25.9 µM) | 8 (≈ 25.9 µM) | 8 (≈ 25.9 µM) | 2 (≈ 6.48 µM) | 2 (≈ 6.48 µM) | O=S1(=O)Nc2ccc(Cl)cc2C2(c3ccccc3)ON21 (stereo not drawn) [II-1l]

Further lines, the compound ahead of its results:

Structure (SMILES) | MIC [1] [µg/mL] | MIC [2] [µg/mL] | MIC [3] [µg/mL] | MIC [4] [µg/mL] | MIC [5] [µg/mL]
O=S1(=O)N=Cc2cc(F)ccc2O1 [I-1a] | 4 (≈ 19.9 µM) | 4 (≈ 19.9 µM) | 4 (≈ 19.9 µM) | 1 (≈ 4.97 µM) | 1 (≈ 4.97 µM)
O=S1(=O)N=Cc2cc(Cl)ccc2O1 [I-1b] | 4 (≈ 18.4 µM) | 4 (≈ 18.4 µM) | 4 (≈ 18.4 µM) | 1 (≈ 4.59 µM) | 1 (≈ 4.59 µM)
O=S1(=O)N=Cc2cc(Br)ccc2O1 [I-1c] | 4 (≈ 15.3 µM) | 4 (≈ 15.3 µM) | 4 (≈ 15.3 µM) | 1 (≈ 3.82 µM) | 1 (≈ 3.82 µM)
COc1ccc2c(c1)C=NS(=O)(=O)O2 [I-1d] | 8 (≈ 37.5 µM) | 8 (≈ 37.5 µM) | 8 (≈ 37.5 µM) | 2 (≈ 9.38 µM) | 2 (≈ 9.38 µM)
O=[N+]([O-])c1ccc2c(c1)C=NS(=O)(=O)O2 [I-1e] | 4 (≈ 17.5 µM) | 4 (≈ 17.5 µM) | 4 (≈ 17.5 µM) | 1 (≈ 4.38 µM) | 1 (≈ 4.38 µM)
COC(=O)c1ccc2c(c1)C=NS(=O)(=O)O2 [I-1f] | 4 (≈ 16.6 µM) | 4 (≈ 16.6 µM) | 4 (≈ 16.6 µM) | 1 (≈ 4.15 µM) | 1 (≈ 4.15 µM)
N#Cc1ccc2c(c1)C=NS(=O)(=O)O2 [I-1g] | 4 (≈ 19.2 µM) | 4 (≈ 19.2 µM) | 4 (≈ 19.2 µM) | 1 (≈ 4.8 µM) | 1 (≈ 4.8 µM)
O=S1(=O)N=Cc2cc(Cl)cc(Cl)c2O1 [I-1h] | 4 (≈ 15.9 µM) | 4 (≈ 15.9 µM) | 4 (≈ 15.9 µM) | 1 (≈ 3.97 µM) | 1 (≈ 3.97 µM)
O=[N+]([O-])c1cc(Cl)cc2c1OS(=O)(=O)N=C2 [I-1i] | 4 (≈ 15.2 µM) | 4 (≈ 15.2 µM) | 4 (≈ 15.2 µM) | 1 (≈ 3.81 µM) | 1 (≈ 3.81 µM)
CC1=NS(=O)(=O)Oc2ccccc21 [I-1j] | 8 (≈ 40.6 µM) | 8 (≈ 40.6 µM) | 8 (≈ 40.6 µM) | 2 (≈ 10.1 µM) | 2 (≈ 10.1 µM)
CC1=NS(=O)(=O)Nc2ccccc21 [I-1k] | 8 (≈ 40.8 µM) | 8 (≈ 40.8 µM) | 8 (≈ 40.8 µM) | 2 (≈ 10.2 µM) | 2 (≈ 10.2 µM)
O=S1(=O)N=C(c2ccccc2)c2cc(Cl)ccc2N1 [I-1l] | 8 (≈ 27.3 µM) | 8 (≈ 27.3 µM) | 8 (≈ 27.3 µM) | 2 (≈ 6.83 µM) | 2 (≈ 6.83 µM)
CC1=NS(=O)(=O)OC(C)=C1C [I-2a] | 8 (≈ 45.7 µM) | 8 (≈ 45.7 µM) | 8 (≈ 45.7 µM) | 2 (≈ 11.4 µM) | 2 (≈ 11.4 µM)
CC1=CC(C)=NS(=O)(=O)N1 [I-2b] | 16 (≈ 99.9 µM) | 16 (≈ 99.9 µM) | 16 (≈ 99.9 µM) | 2 (≈ 12.5 µM) | 2 (≈ 12.5 µM)
CC1=CC(c2ccccc2)=NS(=O)(=O)N1 [I-2c] | 8 (≈ 36 µM) | 8 (≈ 36 µM) | 8 (≈ 36 µM) | 2 (≈ 9 µM) | 2 (≈ 9 µM)
CC1=C(C)C(c2ccccc2)=NS(=O)(=O)N1 [I-2d] | 8 (≈ 33.9 µM) | 8 (≈ 33.9 µM) | 8 (≈ 33.9 µM) | 2 (≈ 8.46 µM) | 2 (≈ 8.46 µM)
CC1=NS(=O)(=O)OC1C (stereo not drawn) [I-3a] | 4 (≈ 26.8 µM) | 4 (≈ 26.8 µM) | 4 (≈ 26.8 µM) | 2 (≈ 13.4 µM) | 2 (≈ 13.4 µM)
CCC1=NS(=O)(=O)OC1CC (stereo not drawn) [I-3b] | 4 (≈ 22.6 µM) | 4 (≈ 22.6 µM) | 4 (≈ 22.6 µM) | 2 (≈ 11.3 µM) | 2 (≈ 11.3 µM)
O=S1(=O)N=C(c2ccccc2)CO1 [I-3c] | 8 (≈ 40.6 µM) | 8 (≈ 40.6 µM) | 8 (≈ 40.6 µM) | 2 (≈ 10.1 µM) | 2 (≈ 10.1 µM)
O=S1(=O)N=C(c2ccc(Cl)cc2)CO1 [I-3d] | 8 (≈ 34.5 µM) | 8 (≈ 34.5 µM) | 8 (≈ 34.5 µM) | 2 (≈ 8.63 µM) | 2 (≈ 8.63 µM)
CCCCCCCCN1CC(c2ccccc2)=NS1(=O)=O [I-3e] | 8 (≈ 25.9 µM) | 8 (≈ 25.9 µM) | 8 (≈ 25.9 µM) | 2 (≈ 6.48 µM) | 2 (≈ 6.48 µM)
CC1=NS(=O)(=O)N=C1 [I-4a] | 8 (≈ 60.5 µM) | 8 (≈ 60.5 µM) | 8 (≈ 60.5 µM) | 2 (≈ 15.1 µM) | 2 (≈ 15.1 µM)
CC1=NS(=O)(=O)N=C1C [I-4b] | 16 (≈ 109 µM) | 16 (≈ 109 µM) | 16 (≈ 109 µM) | 4 (≈ 27.4 µM) | 4 (≈ 27.4 µM)
O=S1(=O)N=CC(CCc2ccc(F)cc2)=N1 [I-4c] | 8 (≈ 33.3 µM) | 8 (≈ 33.3 µM) | 8 (≈ 33.3 µM) | 2 (≈ 8.32 µM) | 2 (≈ 8.32 µM)
O=S1(=O)N=CC(CCc2ccc(Cl)cc2)=N1 [I-4d] | 8 (≈ 31.2 µM) | 8 (≈ 31.2 µM) | 8 (≈ 31.2 µM) | 2 (≈ 7.79 µM) | 2 (≈ 7.79 µM)
O=S1(=O)N=Cc2nccn21 [I-5a] | 8 (≈ 50.9 µM) | 8 (≈ 50.9 µM) | 8 (≈ 50.9 µM) | 2 (≈ 12.7 µM) | 2 (≈ 12.7 µM)
O=S1(=O)N=Cc2cccn21 [I-5b] | 16 (≈ 102 µM) | 16 (≈ 102 µM) | 16 (≈ 102 µM) | 4 (≈ 25.6 µM) | 4 (≈ 25.6 µM)
O=S1(=O)N=CC2=COc3ccccc3C2=N1 [I-6a] | 4 (≈ 17.1 µM) | 4 (≈ 17.1 µM) | 4 (≈ 17.1 µM) | 1 (≈ 4.27 µM) | 1 (≈ 4.27 µM)
O=S1(=O)N=CC2=COc3ccc(F)cc3C2=N1 [I-6b] | 4 (≈ 15.9 µM) | 4 (≈ 15.9 µM) | 4 (≈ 15.9 µM) | 1 (≈ 3.96 µM) | 1 (≈ 3.96 µM)
O=S1(=O)N=CC2=COc3ccc(Cl)cc3C2=N1 [I-6c] | 4 (≈ 14.9 µM) | 4 (≈ 14.9 µM) | 4 (≈ 14.9 µM) | 1 (≈ 3.72 µM) | 1 (≈ 3.72 µM)
